System: human brain
Assay: CNV (Contingent Negative Variation) method, inhalation of fragrance compositions by a panel of subjects
Type: in vivo
Settings: 2 wt % isopulegol added to fragrance A; fragrance A as control; inhaled; panel of 7 subjects; FIG. 3
Procedure: The stimulating effect of isopulegol was determined by the CNV (Contingent Negative Variation) method as described below and briefly summarized in FIGS. 1 and 2.
The CNV was measured using a digital electroencephalograph BIOSEMi (registered trademark). Electrodes for the CNV measurement were placed at Fp1, Fp2, F4, Fz, F3, T7, C3, Cz, C4, T8, P4, Pz, P3, O1, Oz, O2 according to the international 10-20 system, electrodes for ear lobes were set to indifferent electrodes, and brain waves were recorded at a time constant of 5.0 seconds referenced to the linked earlobes. In order to check artifacts of eye movement to a brain wave, vertical and horizontal movements of the left eye were also recorded.
Confirmation of a stimulative effect of a sample was conducted by steps of delivering a warning stimulus S1 (tone of 60-65 dB), followed 2300 ms later by a second stimulus S2 (light source). Test fragrance compositions were inhaled from jars disposed a few (e.g. 15-20) centimetres from the subjects' nose during each period of acquisition. […] The base line was determined from an average voltage of a brain wave in a time period of 500 ms before S1. The evaluation of the CNV waveform was conducted according to the method of Tori et al. (op. cit.), in which CNV was evaluated by the area (unit: ms×[…]) of an early component between 400 ms to 1,000 ms after the warning sound stimulus (S1).

C=C(C)[C@@H]1CC[C@@H](C)C[C@H]1O (racemic) [isopulegol]
CNV activity (area under the curve) of fragrance A + isopulegol versus fragrance A alone: enhances the CNV activity of fragrance A
